Assay results reported in patent publication US4895589A, “Heterocyclic compounds” (Imperial Chemical Industries PLC, priority 1985, dated 1990).
Where two headings read alike, the source gives them in different places.

Legend:
Cynosurus cristatus = conditions: CC, 4000 ppm, 2-3 weeks
Agrostis tenius = conditions: AT, 4000 ppm, 2-3 weeks
Protocol: (§2) The compounds were tested for plant growth regulator activity against up to tweleve plant species for various growth effects relevant to plant growth regulation.
(§3) After spray, the plants were grown in a glasshouse with 25° C. day/22° C. night temperatures and supplementary lighting was supplied when necessary (from mercury vapour lamps), to provide a 16 hour photoperiod. The exception to this were the temperate cereals, wheat and barley, which were grown in 16° C. day 13° C. night temperatures
(§4) After 2-3 weeks in the glasshouse, depending on the time of year, the plants were visually assessed for morphological characteristics. Formulations blanks were used as controls to assess the Plants.

Spring Barley = experiment: Intermediate Retardant Test, spring barley; type: in vivo, Spring Barley (Atem/kym); conditions: Hordeum vulgare, 672 h, ~28 days, read-out: Percentage Reduction in Height of Spring Barley (Compared to formulation blank)
Summary of the method: (§1)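 Percentage height reduction relative to the formulation blank, assessed about 28 days post-treatment as height to top-most ligule (rice, spring barley) or to apex (apples). Compounds sprayed overall at 1000 and 4000 ppm (1 and 4 kg ha^-1 in 1000 l/ha), covering root and foliar uptake; rice grown immersed in paddy pots.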

Wheat = conditions: WW, 4000 ppm, 2-3 weeks
Protocol: as §2, §3, §4

[1] = tested on: plant species of Whole Plant Screen (1) or (2); experiment: Across screen comparison: total retardation relative to paclobutrazol (Whole Plant Screens (1) and (2)); type: in vivo; conditions: compounds of Table I, Table X
Summary of the method: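 Compounds, each tested in Whole Plant Screen (1) or (2), are compared by summing retardation scores over all species tested. Each total is expressed as a percentage of the total retardation from paclobutrazol, the standard run in every test.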

Dacrylis glomerata = conditions: DA, 4000 ppm, 2-3 weeks
Protocol: as §2, §3, §4

Sugar beet = conditions: SB, 4000 ppm, 2-3 weeks
Protocol: as §2, §3, §4

Rice [2] = experiment: Intermediate Retardant Test, rice; type: in vivo, Rice (Ishikari); conditions: Oryza sativa, 672 h, ~28 days, read-out: Percentage Reduction in Height of Rice (Compared to formulation blank)
Summary of the method: as §1

Soya = conditions: SY, 4000 ppm, 2-3 weeks
Protocol: as §2, §3, §4

Barley = experiment: Whole Plant Screen (2), barley; type: in vivo, Barley (Atem); conditions: BR, 4000 ppm, side-by-side, Table XIII
Tomato = conditions: TO, 4000 ppm, 2-3 weeks
Apple = experiment: Whole Plant Screen (2), apple; type: in vivo, Apple (Red Delicious); conditions: AP, 4000 ppm, side-by-side, Table XIII
Protocol: After 2-6 weeks in the glasshouse, depending on the time of year, the plants were visually assessed for morphological characteristics. Formulation blanks were used as controls to assess the plants.
Compound numbers 1, 5 and 7 (of the present invention) were tested against compounds A, B, C and D (compound Nos. 12, 2, 24 and 50 of Table 1 EP No. 0052424) on whole plant screen (2). The compounds were tested of plant growth regulator activity against five species and for various growth effects relevant to plant growth regulation. The structures are set out in FIG. 1.
The plant species used in this screen are presented in Table XII with the leaf stage at which they were sprayed Each chemical was applied at 4000 ppm (4 kg/ha in a 1000 l/ha field volume) using a tracksprayer and a SS8004E (Teejet) nozzle. […]

Rice [3] = experiment: Whole Plant Screen (2), rice; type: in vivo, Rice (Ishikari); conditions: RC, 4000 ppm, side-by-side, Table XIII
Summary of the method: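 Foliar spray at 4000 ppm (4 kg/ha in 1000 l/ha) by tracksprayer at the listed leaf stage. Plants grown in glasshouse at 25° C. day/22° C. night, 16° C./13° C. for wheat, 16 h photoperiod. Morphology visually assessed after 2-6 weeks against formulation blanks.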

Apples = experiment: Intermediate Retardant Test, apples; type: in vivo, Apples (Red Delicious); conditions: 672 h, ~28 days, read-out: Percentage Reduction in Height of Apples (Compared to formulation blank)
Summary of the method: as §1

SMILES	Retardation score (1-3) with greening (G), apical damage (A), tillering/side shooting (T) (Cynosurus cristatus) [G]	Retardation score (1-3) with greening (G), apical damage (A), tillering/side shooting (T) (Agrostis tenius) [G]	height reduction vs blank at 1000 ppm (Spring Barley; Table VIII) [%]	height reduction vs blank at 1000 ppm (Spring Barley; side-by-side, Table XV) [%]	height reduction vs blank at 4000 ppm (Spring Barley; Table VIII) [%]	height reduction vs blank at 4000 ppm (Spring Barley; side-by-side, Table XV) [%]	Retardation score (1-3) with greening (G), apical damage (A), tillering/side shooting (T) (Wheat)	Total Retardation expressed as a percentage of the total retardation caused by paclobutrazol [1]	Retardation score (1-3) with greening (G), apical damage (A), tillering/side shooting (T) (Dacrylis glomerata) [G]	Retardation score (1-3) with greening (G), apical damage (A), tillering/side shooting (T) (Sugar beet) [G]	Percent reduction in rice plant height vs formulation blank at 1000 ppm (Rice [2]; Table VII) [%]	Percent reduction in rice plant height vs formulation blank at 1000 ppm (Rice [2]; side-by-side, Table XVI) [%]	Percent reduction in rice plant height vs formulation blank at 4000 ppm (Rice [2]; Table VII) [%]	Percent reduction in rice plant height vs formulation blank at 4000 ppm (Rice [2]; side-by-side, Table XVI) [%]	Retardation score (1-3) with greening (G), apical damage (A), tillering/side shooting (T) (Soya)	G = Greening effect (Barley)	Retardation score (1-3) with greening (G), apical damage (A), tillering/side shooting (T) (Tomato)	G = Greening effect (Apple)	G = Greening effect (Rice [3])	I = Interligular or internodal length reduction (Rice [3])	also measured
CC(C)CC#CC(O)(Cn1cncn1)C(C)(C)C (centres unmarked) [Compound 7, 2,2-dimethyl-3-hydroxy-3-(4-methyl-pent-1-yne-1-yl)-4-(1,2,4-triazol-1-yl)-butane]	2	2	33	20	75.4	51	3GT	58.6 % of paclobutrazol	1	1	11.1	27	26	53	3GAT	1 (10-30%)	2GT	1 (10-30%)	1 (10-30%)	3 (61-100%)	I = Interligular or internodal length reduction (Barley): 3 (61-100%); R = Retardation (Rice [3]): 2 (31-60%); T = Tillering or side shooting (Rice [3]): 3 (61-100%); percent reduction in plant height vs formulation blank at 1000 ppm (Apples; Table IX): 15%; percent reduction in plant height vs formulation blank at 1000 ppm (Apples; side-by-side, Table XVII): 30%; percent reduction in plant height vs formulation blank at 4000 ppm (Apples; Table IX): 31%; percent reduction in plant height vs formulation blank at 4000 ppm (Apples; side-by-side, Table XVII): 60%
CCCCC#CC(O)(Cn1cncn1)C(C)(C)C (centres unmarked) [Compound 1, 2,2-dimethyl-3-hydroxy-3-(hex-1-yne-1-yl)-4-(1,2,4-triazol-1-yl)-butane]	2	3	32.3	28	60.7	62	3T	84.0 % of paclobutrazol	2	1	24.6	31	49.9	53	1G	1 (10-30%)	2G	1 (10-30%)	2 (31-60%)	3 (61-100%)	T = Tillering or side shooting (Barley): 1 (10-30%); R = Retardation (Rice [3]): 2 (31-60%); T = Tillering or side shooting (Rice [3]): 3 (61-100%); percent reduction in plant height vs formulation blank at 1000 ppm (Apples; side-by-side, Table XVII): 0%; percent reduction in plant height vs formulation blank at 4000 ppm (Apples; Table IX): 51.6%; percent reduction in plant height vs formulation blank at 4000 ppm (Apples; side-by-side, Table XVII): 41%
